Where two headings read alike, the source gives them in different places.
Key:
drIndy = drIndy (Drosophila melanogaster, UniProt Q9VVT2); details: for % Control of cDNA-specific [^3H]succinate uptake / cDNA-specific [^3H] succinate uptake: [3H]succinate 40 nM, inhibitor 2.5 mM; for cDNA-specific [^3H] succinate uptake: NaCl buffer pH 7.5; for Uptake in drIndy cDNA-transfected cells vs vector alone / Succinate uptake mediated by drIndy: succinate 40 nM
mouse NaCT = molecular target: T1, mouse NaCT (Mus musculus, UniProt Q67BT3); assay: Transport via mouse NaCT expressed in HRPE cells; type: cell-based; details: for [^3H]-Succinate transport (NaCT-specific) / [^3H]-Succinate transport, %: [3H]-succinate 0.1 μM; for [^3H]-Succinate transport (NaCT-specific) / [^3H]-Succinate transport, % / [^14C]-Citrate transport (NaCT-specific) / [^14C]-Citrate transport, %: substrate analog 2 mM; for [^3H]-Succinate transport, % / [^14C]-Citrate transport, %: control = 100; for [^14C]-Citrate transport (NaCT-specific) / [^14C]-Citrate transport, %: [14C]-citrate 10 μM
T1 sequence (Q67BT3 1-572): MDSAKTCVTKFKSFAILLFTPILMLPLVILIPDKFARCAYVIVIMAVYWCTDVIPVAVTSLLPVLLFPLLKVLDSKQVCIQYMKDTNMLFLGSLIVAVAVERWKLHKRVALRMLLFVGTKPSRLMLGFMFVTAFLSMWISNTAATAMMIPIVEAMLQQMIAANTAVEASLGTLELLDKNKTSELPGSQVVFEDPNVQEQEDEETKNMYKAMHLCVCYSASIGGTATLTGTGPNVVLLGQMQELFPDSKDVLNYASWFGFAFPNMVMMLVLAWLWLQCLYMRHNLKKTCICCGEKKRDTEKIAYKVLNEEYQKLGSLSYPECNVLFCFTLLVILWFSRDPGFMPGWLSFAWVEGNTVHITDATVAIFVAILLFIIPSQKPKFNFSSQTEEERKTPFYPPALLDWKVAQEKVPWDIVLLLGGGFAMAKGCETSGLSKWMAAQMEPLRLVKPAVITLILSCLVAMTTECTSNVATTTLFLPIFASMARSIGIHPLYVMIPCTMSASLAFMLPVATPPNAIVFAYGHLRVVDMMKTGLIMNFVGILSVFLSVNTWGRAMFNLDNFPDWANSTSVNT

rat NaCT [1] = molecular target: T2, rat NaCT (Rattus norvegicus, UniProt Q8CJ44); assay: Rat NaCT in X. laevis oocytes, voltage clamp and charge-to-substrate ratio; type: cell-based; details: for Charge-to-substrate ratio: 50 μM substrate, −50 mV, 10 min
T2 sequence (Q8CJ44 1-572): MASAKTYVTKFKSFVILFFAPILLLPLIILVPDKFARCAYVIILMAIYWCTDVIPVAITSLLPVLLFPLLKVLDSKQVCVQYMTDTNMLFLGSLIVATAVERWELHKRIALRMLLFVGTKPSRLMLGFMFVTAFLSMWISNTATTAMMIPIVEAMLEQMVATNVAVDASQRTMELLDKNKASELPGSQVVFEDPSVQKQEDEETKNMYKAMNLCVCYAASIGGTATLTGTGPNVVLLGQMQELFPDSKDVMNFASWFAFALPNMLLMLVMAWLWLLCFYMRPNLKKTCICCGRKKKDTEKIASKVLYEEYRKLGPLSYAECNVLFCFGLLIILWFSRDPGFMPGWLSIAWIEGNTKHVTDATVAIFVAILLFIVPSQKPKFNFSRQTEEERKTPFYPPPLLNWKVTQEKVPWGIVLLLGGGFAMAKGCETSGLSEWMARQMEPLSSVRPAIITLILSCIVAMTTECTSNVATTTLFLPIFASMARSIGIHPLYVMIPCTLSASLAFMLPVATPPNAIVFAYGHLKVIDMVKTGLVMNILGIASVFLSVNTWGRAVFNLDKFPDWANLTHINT

rat NaCT [2] = molecular target: T2, rat NaCT; assay: Uptake via rat NaCT expressed in HRPE cells; type: cell-based; details: for [^14C]Citrate uptake (cDNA-specific) / [^14C]Citrate uptake, %: [14C]citrate 14 μM, unlabeled compound 2.5 mM; for [^14C]Citrate uptake, %: none = 100; for Uptake in rat NaCT cDNA-transfected cells vs vector alone: succinate 80 nM, pyruvate 135 μM, citrate 35 μM, Na+ gradient
ceNaCT = molecular target: T3, ceNaCT (Caenorhabditis elegans, UniProt P32739, I91S/L182M); assay: Uptake via ceNaCT expressed in HRPE cells; details: for Competition with [^14C]citrate for ceNaCT-mediated uptake: competitor 2.5 mM, [14C]citrate 15 μM
T3 sequence (P32739 1-551 I91S/L182M): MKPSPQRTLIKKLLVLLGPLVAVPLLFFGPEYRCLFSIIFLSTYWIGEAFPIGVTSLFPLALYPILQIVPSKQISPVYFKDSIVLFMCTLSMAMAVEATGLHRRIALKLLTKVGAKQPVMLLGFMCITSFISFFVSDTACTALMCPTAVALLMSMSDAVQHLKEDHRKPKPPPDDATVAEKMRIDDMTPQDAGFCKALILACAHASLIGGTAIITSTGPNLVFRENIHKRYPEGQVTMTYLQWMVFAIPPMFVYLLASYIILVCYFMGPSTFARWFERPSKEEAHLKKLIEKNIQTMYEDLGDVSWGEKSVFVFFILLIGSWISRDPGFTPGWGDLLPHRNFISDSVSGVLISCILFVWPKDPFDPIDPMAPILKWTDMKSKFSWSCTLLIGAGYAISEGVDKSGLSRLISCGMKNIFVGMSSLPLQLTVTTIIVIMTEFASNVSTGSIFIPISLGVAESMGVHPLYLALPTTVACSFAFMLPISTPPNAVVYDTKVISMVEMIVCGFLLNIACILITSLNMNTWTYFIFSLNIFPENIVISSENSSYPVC

human NaCT = human NaCT (Homo sapiens, UniProt Q86YT5); assay: Uptake via human NaCT expressed in HRPE cells; type: cell-based; details: for [^14C]-Citrate Uptake (cDNA-specific) / [^14C]-Citrate Uptake, %: [14C]-citrate 20 μM, unlabeled compound 2.5 mM; for [^14C]-Citrate Uptake, %: none = 100
[3] = presence of Na+, citrate 35 μM, pyruvate 135 μM

Sequence of human NaCT (Q86YT5 whole entry): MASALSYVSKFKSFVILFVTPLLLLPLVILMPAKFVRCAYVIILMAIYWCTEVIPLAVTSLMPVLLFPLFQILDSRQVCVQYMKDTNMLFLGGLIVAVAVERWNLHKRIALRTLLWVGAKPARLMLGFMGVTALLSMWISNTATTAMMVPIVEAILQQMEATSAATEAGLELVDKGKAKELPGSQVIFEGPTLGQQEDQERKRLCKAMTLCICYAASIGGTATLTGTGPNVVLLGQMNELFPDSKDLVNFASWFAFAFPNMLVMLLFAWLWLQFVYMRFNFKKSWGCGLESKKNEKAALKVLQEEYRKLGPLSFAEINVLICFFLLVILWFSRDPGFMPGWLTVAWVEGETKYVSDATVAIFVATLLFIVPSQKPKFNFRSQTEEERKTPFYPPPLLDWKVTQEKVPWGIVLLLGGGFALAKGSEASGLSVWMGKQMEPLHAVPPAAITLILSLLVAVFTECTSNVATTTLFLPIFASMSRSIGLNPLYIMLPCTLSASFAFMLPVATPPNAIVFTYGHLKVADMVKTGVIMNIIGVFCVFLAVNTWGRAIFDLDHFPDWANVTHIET
Sequence of drIndy (Q9VVT2 19-590): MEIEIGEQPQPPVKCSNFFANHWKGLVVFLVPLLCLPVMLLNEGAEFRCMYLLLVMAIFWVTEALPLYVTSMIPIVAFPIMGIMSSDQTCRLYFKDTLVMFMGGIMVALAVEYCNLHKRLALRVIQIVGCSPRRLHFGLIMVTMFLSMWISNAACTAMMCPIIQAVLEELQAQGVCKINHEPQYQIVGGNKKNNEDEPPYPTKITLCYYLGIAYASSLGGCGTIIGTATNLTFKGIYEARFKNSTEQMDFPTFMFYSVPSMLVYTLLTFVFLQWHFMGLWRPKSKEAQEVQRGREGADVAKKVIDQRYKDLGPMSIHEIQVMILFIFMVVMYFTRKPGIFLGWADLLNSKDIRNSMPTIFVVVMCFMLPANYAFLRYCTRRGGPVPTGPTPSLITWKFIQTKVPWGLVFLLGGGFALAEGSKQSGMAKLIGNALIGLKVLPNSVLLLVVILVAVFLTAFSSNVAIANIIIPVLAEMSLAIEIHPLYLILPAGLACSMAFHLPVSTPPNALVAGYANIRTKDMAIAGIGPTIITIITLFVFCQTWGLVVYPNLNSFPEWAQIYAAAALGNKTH

| SMILES | % Control of cDNA-specific [^3H]succinate uptake (drIndy) | cDNA-specific [^3H] succinate uptake (drIndy) | Uptake in drIndy cDNA-transfected cells vs vector alone (drIndy; [3]) | Maximal velocity (Vmax) (mouse NaCT) | Michaelis-Menten constant (Kt) for transport via mouse NaCT (mouse NaCT) | [^3H]-Succinate transport (NaCT-specific) (mouse NaCT) | [^3H]-Succinate transport, % (mouse NaCT) | [^14C]-Citrate transport (NaCT-specific) (mouse NaCT) | [^14C]-Citrate transport, % (mouse NaCT) | Transport in mouse NaCT cDNA-transfected cells vs vector alone (mouse NaCT; succinate 50 nM, citrate 20 μM) | Charge-to-substrate ratio (rat NaCT [1]) | IC50 (rat NaCT [2]) | Ki (rat NaCT [2]) | [^14C]Citrate uptake (cDNA-specific) (rat NaCT [2]) | [^14C]Citrate uptake, % (rat NaCT [2]) | Uptake in rat NaCT cDNA-transfected cells vs vector alone (rat NaCT [2]) | Competition with [^14C]citrate for ceNaCT-mediated uptake (ceNaCT) | Vmax for transport via ceNaCT (ceNaCT; pH 7.5) | IC50 (human NaCT) | [^14C]-Citrate Uptake (cDNA-specific) (human NaCT) | also measured |
| --- | --- | --- | --- | --- | --- | --- | --- | --- | --- | --- | --- | --- | --- | --- | --- | --- | --- | --- | --- | --- | --- |
| O=C(O)CC(O)(CC(=O)O)C(=O)O [Citrate] | 13% | 18.6 ± 3.0 fmol/106 cells per min | approximately 30 fold | 118±6 pmol/10^6 cells/min | 22 ± 2 µM | 0.004 ± 0.001 pmol/10^6 cells/min | 3% | 0.7 ± 0.1 pmol/10^6 cells/min | 2% | 20.2 fold | 1 | 28 ± 4 µM | 16 ± 2 µM | 1.5 ± 0.1 Pmol/10^6 cells/min | 1% | approximately 90 fold | potent inhibitor | 270±13 pmol/10^6 cells/min | 688 ± 150 µM | 7.7 ± 0.7 pmol/10^6 cells/min | Transport of citrate in cDNA-transfected cells (mouse NaCT; citrate 20 μM): 48.4±1.0 pmol/10^6 cells/min; Currents in rat NaCT oocytes compared to mouse NaCT (rat NaCT [1]; 0.5 mM citrate): 3 fold; Citrate-induced current (rat NaCT [1]; 0.5 mM citrate, three oocytes): 87±8 nA; Kt (Michaelis-Menten constant) for citrate uptake via rat NaCT (rat NaCT [2]): 18 ± 4 µM; Uptake in ceNaCT-expressing cells vs vector-transfected control cells (ceNaCT; [14C]citrate 10 μM, Na+, pH 7.5): approximately 45 fold; Uptake of [^14C]citrate in cells expressing ceNaCT (ceNaCT; citrate 10 μM, Na+, pH 7.5): 61±5 pmol/10^6 Cells/min; Kt for citrate via human NaCT in the presence of Li+ (human NaCT; 10 mM Li+): 95 ± 15 µM; [^14C]-Citrate Uptake, % (human NaCT): 16%; Uptake in human NaCT cDNA-transfected cells vs vector alone (human NaCT; citrate 20 μM, NaCl): about 23 fold; Affinity of human NaCT for citrate less than that of rat NaCT (human NaCT; identical assay conditions): about 30 fold; Kt (Michaelis-Menten constant) for citrate uptake via human NaCT (human NaCT; wild type, absence of Li+): 604 ± 73 µM |
| O=C(O)CCC(=O)O [Succinate, succinate] | 6% | 4.6 ± 0.4 fmol/106 cells per min | 20 fold | 80±5 pmol/10^6 cells/min | 33 ± 4 µM | 0.007 ± 0.003 pmol/10^6 cells/min | 5% | 0.1 ± 0.1 pmol/10^6 cells/min | 1% | 7.8 fold | 2 | 172 ± 24 µM | 98 ± 14 µM | 5.7 ± 0.2 Pmol/10^6 cells/min | 5% | about 7 fold | inhibited markedly | 210±8 pmol/10^6 cells/min | 1920 ± 480 µM | 32.1 ± 3.6 pmol/10^6 cells/min | Uptake in drIndy cDNA-transfected cells vs vector alone (drIndy; absence of Na+): 15 fold; Km (drIndy; read-out: Michaelis-Menten constant (Km) for transport via drIndy, presence of Na+): 40 ± 4 µM; Succinate uptake mediated by drIndy (drIndy; pH 5): 52±2 fmol/10^6 cells per minute; Succinate uptake mediated by drIndy (drIndy; pH 8): 127±5 fmol/10^6 cells per minute; Transport of succinate in cDNA-transfected cells (mouse NaCT; succinate 50 nM): 42.7±4.6 fmol/10^6 cells/min; Affinity of rat NaCT for succinate lower than for citrate (rat NaCT [2]): 6 fold; Succinate uptake at physiological concentrations (rat NaCT [2]; medium with 135 μM citrate and 40 μM succinate): 0.005±0.001 nmol/10^6 cells/minute; Km (ceNaCT; read-out: Michaelis-Menten constant (Kt) for transport via ceNaCT, pH 7.5, 30 min): 88 ± 13 µM; [^14C]-Citrate Uptake, % (human NaCT): 67% |

From patent US20050095240A1, “NaCT as a target for lifespan expansion and weight reduction” (Medical College of Georgia Research, priority 2002, published 2005)
